From ChEMBL document CHEMBL4715817, “Python Cathelicidin CATHPb1 Protects against Multidrug-Resistant Staphylococcal Infections by Antimicrobial-Immunomodulatory Duality” (J Med Chem, 2018)
In brackets after ≈: the same amount, converted by molar mass. Activity calls are given as the source filed them. The calls are words filed in the database; no cut-off is given here. Peptide text beside a SMILES is read from it.

What was measured:
Staphylococcus aureus [1] = experiment: Antimicrobial activity against Staphylococcus aureus IS 08032706 incubated for 16 to 18 hrs by fluorescence microplate reader analysis; type: functional; conditions: time 16-18 hrs
Enterococcus faecalis = experiment: Antimicrobial activity against Enterococcus faecalis IS 981 incubated for 16 to 18 hrs by fluorescence microplate reader analysis; type: functional; conditions: time 16-18 hrs
Escherichia coli [2] = experiment: Antimicrobial activity against Escherichia coli ATCC 25922 incubated for 16 to 18 hrs by fluorescence microplate reader analysis; type: functional; conditions: time 16-18 hrs
Escherichia coli [3] = experiment: Antimicrobial activity against Escherichia coli IS 08032813 incubated for 16 to 18 hrs by fluorescence microplate reader analysis; type: functional; conditions: time 16-18 hrs
Klebsiella oxytoca [4] = experiment: Antimicrobial activity against Klebsiella oxytoca incubated for 16 to 18 hrs by fluorescence microplate reader analysis; type: functional; conditions: time 16-18 hrs
Salmonella paratyphi = experiment: Antimicrobial activity against Salmonella paratyphi IS 738 incubated for 16 to 18 hrs by fluorescence microplate reader analysis; type: functional, Salmonella enterica subsp. enterica serovar Paratyphi A; conditions: Salmonella enterica, time 16-18 hrs
Klebsiella pneumoniae = experiment: Antimicrobial activity against Klebsiella pneumoniae IS 1400 incubated for 16 to 18 hrs by fluorescence microplate reader analysis; type: functional; conditions: time 16-18 hrs
Pseudomonas aeruginosa [5] = experiment: Antimicrobial activity against Pseudomonas aeruginosa IS 08031014 incubated for 16 to 18 hrs by fluorescence microplate reader analysis; type: functional; conditions: time 16-18 hrs
Candida albicans = experiment: Antimicrobial activity against Candida albicans IS 08030809 incubated for 16 to 18 hrs by fluorescence microplate reader analysis; type: functional; conditions: time 16-18 hrs
[6] = Immunomodulatory activity in mouse peritoneal macrophage assessed as increase in MCP-1 mRNA level at 20 ug/ml measured after 6 hrs by qRT-PCR analysis relative to control; type: functional; conditions: dose 20 µg/ml
Macrophage [7] = experiment: Immunomodulatory activity in mouse peritoneal macrophage assessed as increase in MCP-1 level at 20 microg/ml measured after 24 hrs by ELISA; type: functional, tissue-based; conditions: dose 20.0 µg/ml
Macrophage [8] = experiment: Immunomodulatory activity in mouse peritoneal macrophage assessed as inhibition of LPS-induced IL-6 level measured after 24 hrs by ELISA; type: functional; conditions: dose 5-20 µg/ml
Staphylococcus aureus [9] = experiment: In vivo antibacterial activity against vancomycin resistant Staphylococcus aureus infected in kunming mouse assessed as reduction in bacterial load in peritoneum at 10 mg/kg, im measured 18 hrs after infection; type: functional, organism-based
Staphylococcus aureus [10] = experiment: In vivo antibacterial activity against vancomycin resistant Staphylococcus aureus infected in kunming mouse assessed as reduction in bacterial load in peritoneum at 10 mg/kg, sc measured 18 hrs after infection; type: functional, organism-based
Staphylococcus aureus [11] = experiment: In vivo antibacterial activity against vancomycin resistant Staphylococcus aureus infected in kunming mouse assessed as reduction in bacterial load in peritoneal lavage at 10 mg/kg, ip administered 4 hrs after infection; type: functional, organism-based
Staphylococcus aureus [12] = experiment: In vivo antibacterial activity against vancomycin resistant Staphylococcus aureus infected in kunming mouse assessed as reduction in bacterial load in spleen at 10 mg/kg, ip administered 4 hrs after infection; type: functional, organism-based
Staphylococcus aureus [13] = experiment: In vivo antibacterial activity against methicillin sensitive Staphylococcus aureus ATCC 25923 infected in kunming mouse assessed as increase in survival rate at 10 mg/kg, ip administered 4 hrs after infection and measured up to 7 days after infection relative to control; type: functional; conditions: time day <=7
Staphylococcus aureus [14] = experiment: In vivo antibacterial activity against vancomycin resistant Staphylococcus aureus infected in neutropenic kunming mouse model assessed as survival rate at 10 mg/kg, ip administered 24 hrs before infection; type: functional, organism-based
Pseudomonas aeruginosa [15] = experiment: Antibiofilm activity against Pseudomonas aeruginosa assessed as biofilm eradication at BIC-5 by XTT and crystal violet staining assay relative to control; type: functional
Klebsiella oxytoca [16] = experiment: Antibiofilm activity against Klebsiella oxytoca assessed as biofilm eradication at BIC-5 by XTT and crystal violet staining assay relative to control; type: functional
[17] = Immunomodulatory activity in mouse peritoneal macrophage assessed as increase in IL-10 mRNA level at 20 ug/ml measured after 6 hrs by qRT-PCR analysis relative to control; type: functional; conditions: dose 20 µg/ml
Neutrophil [18] = experiment: Immunomodulatory activity in neutrophils (unknown origin) assessed as effect on TNF-alpha level at 20 ug/ml measured after 12 hrs by ELISA; type: functional, cell-based; conditions: dose 20.0 µg/ml
Neutrophil [19] = experiment: Immunomodulatory activity in neutrophils (unknown origin) assessed as effect on IL-6 level at 20 ug/ml measured after 12 hrs by ELISA; type: functional, cell-based; conditions: dose 20.0 µg/ml
Mus musculus [20] = experiment: Immunomodulatory activity in Kunming mouse infected with vancomycin-resistant Staphylococcus aureus assessed as decreased in IL-6 level in peritoneal lavage at 10 mg/kg, ip administered 24 hrs before infection by ELISA; type: functional, organism-based
Mus musculus [21] = experiment: Immunomodulatory activity in Kunming mouse infected with vancomycin-resistant Staphylococcus aureus assessed as increased in CXCL1/KC level in peritoneal lavage at 10 mg/kg, ip administered 24 hrs before infection by ELISA; type: functional, organism-based
Mus musculus [22] = experiment: Immunomodulatory activity in Kunming mouse infected with vancomycin-resistant Staphylococcus aureus assessed as decreased in IL-6 level in peritoneal lavage at 10 mg/kg, ip administered 4 hrs after infection by ELISA; type: functional, organism-based
Mus musculus [23] = experiment: Immunomodulatory activity in Kunming mouse infected with vancomycin-resistant Staphylococcus aureus assessed as increased in CXCL1/KC level in peritoneal lavage at 10 mg/kg, ip administered 4 hrs after infection by ELISA; type: functional, organism-based
[24] = Toxicity in Kunming mouse assessed as effect on IL-10 levels at 10 mg/kg, ip measured after 5 hrs by ELISA; type: organism-based; conditions: in vivo
Staphylococcus aureus [25] = experiment: Antibacterial activity against FITC-labelled Staphylococcus aureus ATCC 25923 infected in neutrophil cells assessed as entrapment of bacteria by NET releasing neutrophil at 20 to 40 ug/ml by fluorescence analysis; type: functional, organism-based; conditions: dose 20-40 µg/ml
L02 = experiment: Cytotoxicity against human HL7702 cells assessed as cell death at 100 ug/ml by MTT assay; type: cell-based
Mus musculus [26] = experiment: Immunomodulatory activity in mouse assessed as increase […] of KC in peritoneal cavity at 10 mg/kg, ip measured after 5 to 24 hrs by ELISA; type: functional, organism-based; conditions: time 5-24 hrs
Mus musculus [27] = experiment: Immunomodulatory activity in Kunming mouse infected with vancomycin-resistant Staphylococcus aureus assessed as effect number of inflammatory monocytes in peritoneal cavity at 10 mg/kg, ip measured upto 24 hrs by flow cytometry; type: functional, organism-based; conditions: time hrs <=24
RAW264.7 = experiment: Induction of ROS production in mouse RAW 264.7 cells by fluorescence assay; type: functional, cell-based; conditions: dose 10-40 µg/ml
Macrophage [28] = experiment: Inhibition of LPS-induced phosphorylation of p38 in mouse peritoneal macrophage pretreated for 1 hr followed by LPS stimulation measured after 30 mins by Western blot analysis; type: tissue-based; conditions: dose 5-20 µg/ml, time 1.5 hrs
Macrophage [29] = experiment: Inhibition of NFkappaB in mouse peritoneal macrophage assessed as LPS-induced IkappaBalpha degradation at 5 to 20 ug/ml pretreated for 1 hr followed by LPS stimulation measured after 30 mins by Western blot analysis; type: tissue-based; conditions: dose 20.0 µg/ml, time 1.5 hrs
Staphylococcus aureus [30] = experiment: Antibacterial activity against vancomycin-resistant Staphylococcus aureus assessed as bacterial growth inhibition in presence of 50 mmol NaCl; type: functional
Staphylococcus aureus [31] = experiment: Antibacterial activity against vancomycin-resistant Staphylococcus aureus assessed as bactericidal activity incubated at 0 to 90 degree C for 1 hr; type: functional, organism-based
[32] = Stability of compound in 80% human serum assessed as intact compound remained measured upto 8 hrs by HPLC analysis; type: cell-free; conditions: time hrs <=8

CC[C@H](C)[C@H](NC(=O)[C@@H]1CCCN1C(=O)[C@@H](NC(=O)[C@@H](NC(=O)CNC(=O)CNC(=O)[C@@H](NC(=O)[C@H](Cc1ccccc1)NC(=O)[C@@H](NC(=O)[C@H](CCCCN)NC(=O)[C@@H](NC(=O)[C@H](CCCCN)NC(=O)[C@H](CCCCN)NC(=O)[C@H](Cc1ccccc1)NC(=O)[C@@H](NC(=O)[C@H](CCCCN)NC(=O)[C@H](CCCNC(=N)N)NC(=O)[C@H](Cc1ccccc1)NC(=O)CNC(=O)[C@H](CCCCN)NC(=O)[C@H](CCCCN)NC(=O)[C@@H](NC(=O)[C@H](CCCCN)NC(=O)[C@H](CCCNC(=N)N)NC(=O)[C@H](Cc1ccccc1)NC(=O)[C@H](Cc1ccccc1)NC(=O)[C@H](CCCCN)NC(=O)[C@H](CCCCN)NC(=O)[C@H](Cc1ccccc1)NC(=O)[C@H](CCCNC(=N)N)NC(=O)[C@@H](N)CCCCN)[C@@H](C)CC)[C@@H](C)CC)[C@@H](C)O)[C@@H](C)CC)[C@@H](C)CC)[C@@H](C)O)[C@@H](C)CC)C(=O)O (H-KRFKKFFRKIKKGFRKIFKKTKIFIGGTIPI-OH)
MIC (Staphylococcus aureus [1]): 1.17 µg/mL (≈ 0.308 µM) | MIC (Enterococcus faecalis): 1.17 µg/mL (≈ 0.308 µM) | MIC (Escherichia coli [2]): 1.17 µg/mL (≈ 0.308 µM) | MIC (Escherichia coli [3]): 1.17 µg/mL (≈ 0.308 µM) | MIC (Klebsiella oxytoca [4]): 1.17 µg/mL (≈ 0.308 µM) | MIC (Salmonella paratyphi): 1.17 µg/mL (≈ 0.308 µM) | MIC (Klebsiella pneumoniae): 1.17 µg/mL (≈ 0.308 µM) | MIC (Pseudomonas aeruginosa [5]): 1.17 µg/mL (≈ 0.308 µM) | MIC (Candida albicans): 1.17 µg/mL (≈ 0.308 µM) | fold change (FC) [6]: 13 | inhibition (Macrophage [7]): Active | inhibition (Macrophage [8]): Dose-dependent effect | Activity (Staphylococcus aureus [9]): Active | Activity (Staphylococcus aureus [10]): Active | Activity (Staphylococcus aureus [11]): Active | Activity (Staphylococcus aureus [12]): Active | Activity (Staphylococcus aureus [13]): 83% | Activity (Staphylococcus aureus [14]): inactive | Activity (Pseudomonas aeruginosa [15]): 62.23% | Activity (Klebsiella oxytoca [16]): 75.31% | fold change (FC) [17]: 8 | Activity (Neutrophil [18]): inactive | Activity (Neutrophil [19]): inactive | Activity (Mus musculus [20]): Active | Activity (Mus musculus [21]): Active | Activity (Mus musculus [22]): Active | Activity (Mus musculus [23]): Active | Activity [24]: Non-Toxic | Activity (Staphylococcus aureus [25]): Active | Activity (L02): 4.46% | Activity (Mus musculus [26]): Active | Activity (Mus musculus [27]): inactive | Activity (RAW264.7): Dose-dependent effect | inhibition (Macrophage [28]): Dose-dependent effect | inhibition (Macrophage [29]): Active | MIC (Staphylococcus aureus [30]): 4.69 µg/mL | Activity (Staphylococcus aureus [31]): Active | Stability [32]: 30%
